Converted amounts (≈) assume the structure as drawn. Like-named read-outs stand apart in the source and are kept apart here.
Legend:
Assay type in all cases: cell-based, Clostridioides difficile
C. difficile ATCC 700057 [1] = assay: MIC by agar dilution (CLSI) against quality control strain; settings: Clostridioides difficile, read-out: MIC
Protocol: (§1) MICs obtained using the agar dilution method were determined visually as described for the CLSI method ([41], [42]). MICs obtained using the broth dilution method were determined visually based on the CLSI method except for using Gifu anaerobic medium (GAM) broth instead of supplemented Brucella broth ([41], [42]).

C. difficile ATCC 700057 [2] = assay: Mutant prevention concentration
Protocol: The mutant prevention concentration was measured by plating approximately 10^10 CFU of C. difficile ATCC 700057 onto a GAM agar plate containing the test agent. Inoculated plates were incubated for 3 days, and the MIC for each antibiotic that prevented the growth of colonies was determined using the agar dilution method as described by the CLSI ([41]). The MIC values of grown colonies were compared to determine which bacteria were resistant. The MPC was defined as the lowest concentration that prevented the growth of resistant bacteria.

C. difficile ATCC 700057 [3] = assay: Postantibiotic effect (PAE); settings: for Postantibiotic effect: 1 h exposure
Protocol: C. difficile ATCC 700057 was cultured in GAM agar and adjusted in GAM broth to approximately 10^6 CFU/ml. The bacterial suspensions were preincubated at 37°C for 1 h. […] After preincubation, test and reference solutions were added to each bacterial suspension in a test tube, and the suspensions were cultured for 1 h. After exposure to the test compounds, bacterial suspensions were washed with GAM broth and cultured for 6 h. […] The PAE was defined according to Craig and Gudmundsson as PAE = T − C, where T is the time required for the viable counts of the exposed bacteria to increase by 1 log10 above the counts observed immediately after washing, and C is the corresponding time for the antibiotic unexposed controls ([44]).

[4] = system: 54 clinically isolated C. difficile strains; assay: MIC by agar dilution against 54 clinically isolated strains
Protocol: as §1

SMILES: Cc1c(-c2cnc(N)c(C#N)c2)c(F)cc2c(=O)c(C(=O)O)cn(C3CC3)c12 [OPS-2071, 7-(6-amino-5-cyanopyridin-3-yl)-1-cyclopropyl-6-fluoro-8-methyl-4-oxo-1,4-dihydroquinoline-3-carboxylic acid]
- MIC (C. difficile ATCC 700057 [1]; ATCC700057, agar dilution, determined for the spontaneous resistance assay): 0.03 mg/L (≈ 0.0793 µM)
- MIC (C. difficile ATCC 700057 [1]; ATCC700057, quality control strain ATCC 700057, CLSI method): 0.031 mg/L (≈ 0.0819 µM)
- MPC fold lower than those of fidaxomicin and vancomycin (C. difficile ATCC 700057 [2]): 16 fold
- mutant prevention concentration (MPC) (C. difficile ATCC 700057 [2]; approximately 10^10 CFU, 3 days): 0.5 µg/mL
- PAEs at 4- and 8-fold the MIC (C. difficile ATCC 700057 [3]; 4- and 8-fold the MIC): 3.93 to 4.04 h
- Postantibiotic effect (C. difficile ATCC 700057 [3]; 4× MIC): 3.93 h
- Postantibiotic effect (C. difficile ATCC 700057 [3]; 8× MIC): 4.04 h
- MIC50 fold higher than that of fidaxomicin ([4]; 54 clinical isolates): 2 fold
- MIC50 fold lower than those of vancomycin and metronidazole ([4]; 54 clinical isolates): 16 fold
- MIC90 fold lower than that of fidaxomicin ([4]; 54 clinical isolates): 16 fold
- MIC90 fold lower than those of vancomycin and metronidazole ([4]; 54 clinical isolates): 8 fold
- MIC range ([4]; 54 clinically isolated C. difficile strains): 0.016 to 1 mg/L
- MIC50 ([4]; Clostridioides difficile): 0.125 mg/L (≈ 0.33 µM)
- MIC90 ([4]; Clostridioides difficile, 54 clinically isolated C. difficile strains): 0.5 mg/L (≈ 1.32 µM)

Reference: PMC8097418, “In Vitro and In Vivo Antibacterial Activities of a Novel Quinolone Compound, OPS-2071, against Clostridioides difficile” (Antimicrobial Agents and Chemotherapy, 2021)
